Measurements: patent US11814445B2, “Cyclic polypeptides for PCSK9 inhibition” (Ra Pharmaceuticals, Inc., priority 2018, dated 2023)
Numbered stars: 1 amine (or outer) side, 2 acyl side, 3 side chain; on linkers, the order of the positions; unused ones are H or OH. Bridge positions count the residues as written; N and C are the ends. Square brackets hold non-standard residues; d marks the D form. Peptide text beside a SMILES is read from it. ξ: configuration not given here. X2 = NC(=O)[C@H](CSCc1cccc(C[*:1])c1)CC(=O)[C@@H]1CCCN1[*:2]; Phe(3,4,5-F3) = N[C@@H](Cc1cc(F)c(F)c(F)c1)C(=O)O; Trp(5-F) = N[C@@H](Cc1c[nH]c2ccc(F)cc12)C(=O)O; Asp(3,3-Me2) = CC(C)(C(=O)O)[C@H](N)C(=O)O; X9 = O=C(CCCCCSCc1ccc(CSCCN[*:1])cc1)[*:2]; Bip = N[C@@H](Cc1ccc(-c2ccccc2)cc1)C(=O)O; Phe(3-CN) = N#Cc1cccc(C[C@H](N)C(=O)O)c1; X1 = O=C(CCSCc1cccc(CSCCN[*:1])c1)[*:2]; Phe(4-F) = N[C@@H](Cc1ccc(F)cc1)C(=O)O; Pro(4,4-F2) = O=C(O)[C@@H]1CC(F)(F)CN1; 1Nal = N[C@@H](Cc1cccc2ccccc12)C(=O)O; 2Nal = N[C@@H](Cc1ccc2ccccc2c1)C(=O)O; mXylylene = c1cc(C[*:1])cc(C[*:2])c1; NMeY = CN[C@@H](Cc1ccc(O)cc1)C(=O)O; X3 = O=C(CCSC/C=C/CSCCN[*:1])[*:2]; hhPhe = N[C@@H](CCCc1ccccc1)C(=O)O; Cha = N[C@@H](CC1CCCCC1)C(=O)O; αMeP = C[C@@]1(C(=O)O)CCCN1; Aze = O=C(O)[C@@H]1CCN1; Aib = CC(C)(N)C(=O)O; ξP = O=C(O)C1CCCN1; Mpa = O=C(O)CCS

Assays:
[1] = biological target: human PCSK9 / human LDLR EGFa domain (Homo sapiens, UniProt Q8NBP7); test: TR-FRET assay of inhibition of the PCSK9-LDLR protein-protein interaction; assay type: binding; settings: 20 nM human PCSK9, 20 nM human LDLR EGFa domain, 2 hours room temperature
Chain of human PCSK9 / human LDLR EGFa domain (Q8NBP7 153-692): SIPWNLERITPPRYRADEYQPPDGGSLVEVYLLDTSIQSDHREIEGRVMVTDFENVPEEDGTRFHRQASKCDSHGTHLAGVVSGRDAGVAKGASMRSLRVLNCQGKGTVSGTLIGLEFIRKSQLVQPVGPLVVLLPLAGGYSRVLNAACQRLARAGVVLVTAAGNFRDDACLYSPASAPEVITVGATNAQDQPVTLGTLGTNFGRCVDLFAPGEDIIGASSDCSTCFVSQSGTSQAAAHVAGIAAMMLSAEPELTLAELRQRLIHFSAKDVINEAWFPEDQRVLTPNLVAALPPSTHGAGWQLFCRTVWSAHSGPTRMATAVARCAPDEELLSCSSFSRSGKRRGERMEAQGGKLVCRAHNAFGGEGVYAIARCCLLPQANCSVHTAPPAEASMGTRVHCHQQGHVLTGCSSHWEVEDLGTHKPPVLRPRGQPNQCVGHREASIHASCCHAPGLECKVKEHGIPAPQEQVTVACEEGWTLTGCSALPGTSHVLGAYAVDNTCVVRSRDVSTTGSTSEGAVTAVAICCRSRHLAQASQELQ
Description: A time-resolved fluorescence resonance energy (TR-FRET) assay was used to measure inhibition of the PCSK9-LDLR protein-protein interaction. Briefly, 20 nM avitag-biotinylated human PCSK9 was incubated with 20 nM his-tagged human LDLR EGFa domain in the presence of 5 nM LANCE Ulight Streptavidin (Perkin Elmer) and 5 nM europium-Anti-6×His (Perkin Elmer) for 2 hours covered at room temperature in buffer containing 50 mM HEPES, 150 mM NaCl, 5 mM CaCl2), 0.01% BSA and 0.01% Surfactant P20. Compounds were tested in dose-response and concentrations giving half-maximal inhibition calculated using a 4-parameter fit equation.

PCSK9 = biological target: T1, PCSK9 (Homo sapiens, UniProt Q8NBP7); test: PCSK9 Alexa FRET Standard assay (displacement of AlexaFluor647 tagged cyclic peptide Reagent A); assay type: binding; settings: 0.5 nM PCSK9, 20 nM AF cyclic peptide Reagent A
T1 construct: biotin (biotinylated)
T1 sequence (Q8NBP7 153-692): as above
Description: A solution containing 1 nM biotinylated PCSK9+2.5 nM Lance Streptavidin Europium (Strep-Eu) was made in 50 mM HEPES pH 7.4, 0.15 M NaCl, 5 mM CaCl2), 0.01% BSA, and 0.01% Surfactant P20. A separate solution containing 40 nM of the AlexaFluor tagged cyclic peptide was made in the same buffer system. An Echo was used to transfer 0.750 ul of compound to an assay plate followed by the addition of 15 ul of PCSK9+Stept-Eu and 15 ul of AF peptide. The final assay volume was 30.750 ul containing 0.5 nM PCSK9, 1.25 nM Strep-Eu, and 20 nM AF cyclic peptide. The reaction was incubated at room temperature for at least two hours prior to fluorescence measurements using an Envision Multilabel Reader. IC50 values were determined by fitting data to a sigmoidal dose-response curve using nonlinear regression. Ki was then calculated from the IC50 and the KD of AF cyclic peptide. Counts (B-counts) of the europium-labeled PCSK9 were followed to observe if compounds were […]. A fall off of the B-counts likely indicated a false positive of inhibition. Data from this procedure was reported as “A=‘numerical value’ (nanomolar)”

| SMILES | IC50 [1] [nM] | IC50 (PCSK9) [nM] |
| --- | --- | --- |
| C[C@@H]1NC(=O)[C@@H]2CCCN2C(=O)[C@H](Cc2ccc(F)cc2)NC(=O)[C@H](Cc2c[nH]c3ccc(F)cc23)NC(=O)CNC(=O)[C@H](CCCCN)NC(=O)CCSCc2cccc(c2)CSC[C@@H](C(N)=O)NC(=O)[C@@H]2CCCN2C(=O)[C@H](Cc2ccc(O)cc2)NC1=O [Compound 006] ([Mpa]KG[Trp(5-F)][Phe(4-F)]PAYPC-NH2; linker 1-10 via mXylylene) | 100 to 1000 | 100 to 1000 |
| C[C@@H]1NC(=O)[C@@H]2CCCN2C(=O)[C@H](Cc2ccc3ccccc3c2)NC(=O)[C@H](Cc2c[nH]c3ccc(F)cc23)NC(=O)CNC(=O)[C@H](CCCCN)NC(=O)CCSCc2cccc(c2)CSC[C@@H](C(N)=O)NC(=O)[C@@H]2CCCN2C(=O)[C@H](Cc2ccc(O)cc2)NC1=O [Compound 011] ([Mpa]KG[Trp(5-F)][2Nal]PAYPC-NH2; linker 1-10 via mXylylene) | 1 to 100 | 1 to 100 |
| C[C@@H]1NC(=O)[C@@H]2CCCN2C(=O)[C@H](Cc2cccc3ccccc23)NC(=O)[C@H](Cc2c[nH]c3ccc(F)cc23)NC(=O)CNC(=O)[C@H](CCCCN)NC(=O)CCSCc2cccc(c2)CSC[C@@H](C(N)=O)NC(=O)[C@@H]2CCCN2C(=O)[C@H](Cc2ccc(O)cc2)NC1=O [Compound 012] ([Mpa]KG[Trp(5-F)][1Nal]PAYPC-NH2; linker 1-10 via mXylylene) | 1 to 100 | 1 to 100 |
| C[C@@H]1NC(=O)[C@@H]2CCCN2C(=O)[C@H](CCCc2ccccc2)NC(=O)[C@H](Cc2c[nH]c3ccc(F)cc23)NC(=O)CNC(=O)[C@H](CCCCN)NC(=O)CCSCc2cccc(c2)CSC[C@@H](C(N)=O)NC(=O)[C@@H]2CCCN2C(=O)[C@H](Cc2ccc(O)cc2)NC1=O [Compound 013] ([Mpa]KG[Trp(5-F)][hhPhe]PAYPC-NH2; linker 1-10 via mXylylene) | 1 to 100 | 1 to 100 |
| C[C@@H]1NC(=O)[C@@H]2CCCN2C(=O)[C@H](Cc2cc(F)c(F)c(F)c2)NC(=O)[C@H](Cc2c[nH]c3ccc(F)cc23)NC(=O)CNC(=O)[C@H](CCCCN)NC(=O)CCSCc2cccc(c2)CSC[C@@H](C(N)=O)NC(=O)[C@@H]2CCCN2C(=O)[C@H](Cc2ccc(O)cc2)NC1=O [Compound 014] ([Mpa]KG[Trp(5-F)][Phe(3,4,5-F3)]PAYPC-NH2; linker 1-10 via mXylylene) | 1 to 100 | 1 to 100 |
| C[C@@H]1NC(=O)[C@@H]2CCCN2C(=O)[C@H](Cc2cccc(C#N)c2)NC(=O)[C@H](Cc2c[nH]c3ccc(F)cc23)NC(=O)CNC(=O)[C@H](CCCCN)NC(=O)CCSCc2cccc(c2)CSC[C@@H](C(N)=O)NC(=O)[C@@H]2CCCN2C(=O)[C@H](Cc2ccc(O)cc2)NC1=O [Compound 015] ([Mpa]KG[Trp(5-F)][Phe(3-CN)]PAYPC-NH2; linker 1-10 via mXylylene) | 1 to 100 | 1 to 100 |
| C[C@@H]1NC(=O)[C@@H]2CCCN2C(=O)[C@H](Cc2ccc(-c3ccccc3)cc2)NC(=O)[C@H](Cc2c[nH]c3ccc(F)cc23)NC(=O)CNC(=O)[C@H](CCCCN)NC(=O)CCSCc2cccc(c2)CSC[C@@H](C(N)=O)NC(=O)[C@@H]2CCCN2C(=O)[C@H](Cc2ccc(O)cc2)NC1=O [Compound 017] ([Mpa]KG[Trp(5-F)][Bip]PAYPC-NH2; linker 1-10 via mXylylene) | 100 to 1000 | 1000 to 12100 |
| C[C@@H]1NC(=O)[C@@H]2CCN2C(=O)[C@H](Cc2c[nH]c3ccc(F)cc23)NC(=O)[C@H](Cc2c[nH]c3ccc(F)cc23)NC(=O)[C@@H](C)NC(=O)[C@H](CCCCN)NC(=O)CCSCc2cccc(c2)CSC[C@@H](C(N)=O)CC(=O)[C@@H]2CCCN2C(=O)[C@H](Cc2ccc(O)cc2)NC1=O [Compound 034] ([Mpa]K[dA][Trp(5-F)][Trp(5-F)][Aze]AY; linker 1-C via X2) | 100 to 1000 | 1 to 100 |
| C[C@@H]1NC(=O)[C@@H]2CC(F)(F)CN2C(=O)[C@H](Cc2c[nH]c3ccc(F)cc23)NC(=O)[C@H](Cc2c[nH]c3ccc(F)cc23)NC(=O)[C@@H](C)NC(=O)[C@H](CCCCN)NC(=O)CCSCc2cccc(c2)CSC[C@@H](C(N)=O)NC(=O)[C@@H]2CCCN2C(=O)[C@H](Cc2ccc(O)cc2)NC1=O [Compound 036] ([Mpa]K[dA][Trp(5-F)][Trp(5-F)][Pro(4,4-F2)]AYPC-NH2; linker 1-10 via mXylylene) | 100 to 1000 | 100 to 1000 |
| NCCCC[C@@H]1NC(=O)CCSCc2cccc(c2)CSCCNC(=O)C2CCCN2C(=O)[C@H](Cc2ccc(O)cc2)NC(=O)CNC(=O)[C@H]2CCCN2C(=O)[C@H](Cc2c[nH]c3ccc(F)cc23)NC(=O)[C@H](Cc2c[nH]c3ccc(F)cc23)NC(=O)CNC1=O (stereo partly shown) [Compound 041] (cyclo(G[Trp(5-F)][Trp(5-F)][dP]GY[ξP][X1]K)) | 1 to 100 | 1 to 100 |
| C[C@@H]1NC(=O)[C@@H]2CCCN2C(=O)[C@H](Cc2c[nH]c3ccc(F)cc23)NC(=O)[C@H](Cc2c[nH]c3ccc(F)cc23)NC(=O)[C@@H](C)NC(=O)[C@H](CCCCN)NC(=O)CCSC/C=C/CSCCNC(=O)[C@]2(C)CCCN2C(=O)[C@H](Cc2ccc(O)cc2)NC1=O [Compound 045] (cyclo(AY[αMeP][X3]K[dA][Trp(5-F)][Trp(5-F)]P)) | 1 to 100 | 1 to 100 |
| C[C@@H]1NC(=O)[C@@H]2CCCN2C(=O)[C@H](Cc2c[nH]c3ccc(F)cc23)NC(=O)[C@H](Cc2c[nH]c3ccc(F)cc23)NC(=O)[C@@H](C)NC(=O)[C@@H]2CCCN2C(=O)CCSCc2cccc(c2)CSCCNC(=O)[C@@H]2CCCN2C(=O)[C@H](Cc2ccc(O)cc2)NC1=O [Compound 050] (cyclo(AYP[X1]P[dA][Trp(5-F)][Trp(5-F)]P)) | 1 to 100 | 1000 to 12100 |
| C[C@@H]1NC(=O)[C@@H]2CCCN2C(=O)[C@H](Cc2c[nH]c3ccc(F)cc23)NC(=O)[C@H](Cc2c[nH]c3ccc(F)cc23)NC(=O)CNC(=O)CCCCCSCc2ccc(cc2)CSCCNC(=O)C2CCCN2C(=O)[C@H](Cc2ccc(O)cc2)NC1=O (stereo partly shown) [Compound 099] (cyclo(AY[ξP][X9]G[Trp(5-F)][Trp(5-F)]P)) | 1000 to 12100 |  |
| C[C@@]12CCCN1C(=O)[C@H](Cc1ccc(O)cc1)NC(=O)[C@H](Cc1cnc[nH]1)NC(=O)[C@@H]1CCCN1C(=O)[C@H](Cc1c[nH]c3ccc(F)cc13)NC(=O)[C@H](CC1CCCCC1)NC(=O)CNC(=O)[C@H](CCCCN)NC(=O)CCSCc1cccc(c1)CSCCNC2=O [Compound 104] (cyclo([Cha][Trp(5-F)]PHY[αMeP][X1]KG)) | 1000 to 12100 |  |
| C[C@@H](O)[C@@H]1NC(=O)CNC(=O)[C@H](CCCCN)NC(=O)CCSCc2cccc(c2)CSCCNC(=O)[C@]2(C)CCCN2C(=O)[C@H](Cc2ccc(O)cc2)NC(=O)[C@H](Cc2cnc[nH]2)NC(=O)[C@@H]2CCCN2C(=O)[C@H](Cc2c[nH]c3ccc(F)cc23)NC1=O [Compound 105] (cyclo(GT[Trp(5-F)]PHY[αMeP][X1]K)) | 100 to 1000 |  |
| CN1C(=O)[C@H](Cc2cnc[nH]2)NC(=O)[C@@H]2CCCN2C(=O)[C@H](Cc2c[nH]c3ccc(F)cc23)NC(=O)[C@H](CC2CCCCC2)NC(=O)CNC(=O)[C@H](CCCCN)NC(=O)CCSCc2cccc(c2)CSCCNC(=O)[C@]2(C)CCCN2C(=O)[C@@H]1Cc1ccc(O)cc1 [Compound 106] (cyclo([Cha][Trp(5-F)]PH[NMeY][αMeP][X1]KG)) | 100 to 1000 |  |
| CN1C(=O)[C@H](Cc2cnc[nH]2)NC(=O)C(C)(C)NC(=O)[C@H](Cc2c[nH]c3ccc(F)cc23)NC(=O)[C@H](Cc2c[nH]c3ccc(F)cc23)NC(=O)CNC(=O)[C@H](CCCCN)NC(=O)CCSCc2cccc(c2)CSCCNC(=O)[C@]2(C)CCCN2C(=O)[C@@H]1Cc1ccc(O)cc1 [Compound 111] (cyclo([Aib]H[NMeY][αMeP][X1]KG[Trp(5-F)][Trp(5-F)])) | 1000 to 12100 |  |
| C[C@@H]1NC(=O)CNC(=O)[C@H](CCCCN)NC(=O)CCSCc2cccc(c2)CSC[C@@H](C(N)=O)NC(=O)[C@@H]2CCCN2C(=O)[C@H](Cc2ccc(O)cc2)NC(=O)[C@H](Cc2cnc[nH]2)NC(=O)[C@H](CC(=O)O)NC(=O)[C@H](Cc2c[nH]c3ccc(F)cc23)NC1=O [Compound 112] ([Mpa]KGA[Trp(5-F)]DHYPC-NH2; linker 1-10 via mXylylene) | 100 to 1000 |  |
| CC(C)(C(=O)O)[C@@H]1NC(=O)[C@H](Cc2c[nH]c3ccc(F)cc23)NC(=O)[C@H](Cc2c[nH]c3ccc(F)cc23)NC(=O)CNC(=O)[C@H](CCCCN)NC(=O)CCSCc2cccc(c2)CSC[C@@H](C(N)=O)NC(=O)[C@]2(C)CCCN2C(=O)[C@H](Cc2ccc(O)cc2)NC(=O)[C@H](Cc2cnc[nH]2)NC1=O [Compound 115] ([Mpa]KG[Trp(5-F)][Trp(5-F)][Asp(3,3-Me2)]HY[αMeP]C-NH2; linker 1-10 via mXylylene) | 100 to 1000 |  |
